Measurements from patent US20200157048A1, “(2E,4E)-5-PHENYL-PENTA-2,4-DIEN-1-ONE DERIVATIVE” (BIOWAY., INC, priority 2018, published 2020).

Assays:
Format in all cases: cell-based, Human
Conditions in all cases: steatosis-induced (OA/PA) Huh-7 cells; 10 μM; 24 hours
Ck2α mRNA = assay: qRT-PCR Ck2α mRNA level in steatosis-induced Huh-7 cells
Method: (§1) In Experimental Example 5, the Huh-7 cells were plated in 6 wells at 4×10^5 cells/mL and incubated under an atmosphere containing 5% CO2 at 37° C.
(§2) One day later, the cell density approached about 80 to 90%. The medium was changed to an FBS-free RPMI1640 medium, and incubated under an atmosphere containing 5% CO2 at 37° C. for 24 hours.
(§3) Huh-7 cells of each well, excluding control cells, were pretreated with an OA/PA mixture for one hour to induce steatosis. The control cells were pretreated with 1% FA-free BSA.
(§4) Each well was treated with 10 μM of a test compound, and then the cells were incubated for 24 hours. The control cells and OA/PA-treated cells were treated with DMSO. Cells of a positive control were treated with 10 μM of resveratrol, 10 μM of piperine, and 10 μM of YU2014. The medium was entirely aspirated, and the cells were washed with PBS (phosphate buffered saline, Corning, Manassas, Va., USA) two times.
(§5) Total RNA was extracted using a RNeasy RNA isolation kit (Qiagen, Hilden, Germany).
(§6) 10 μL of β-mercaptoethanol (Sigma-Aldrich) per 1 mL of lysis buffer was added, thereby preparing an RNA lysis buffer. […]
(§7) An RNA concentration was measured at O.D. 260 nm using a nanophotometer N60 (Implen, Munich, Germany). The concentration and purity of RNA were measured at O.D. 260/280 nm and calculated as a ratio. […]
(§8) Quantitative analyses for the genes in Table 3 were performed.

Sirt1 mRNA = assay: qRT-PCR Sirt1 mRNA level in steatosis-induced Huh-7 cells
Method: as §1, §2, §3, §4, §5, §6, §7, §8

Pparα mRNA = assay: qRT-PCR Pparα mRNA level in steatosis-induced Huh-7 cells
Method: as §1, §2, §3, §4, §5, §6, §7, §8

Fgf21 mRNA = assay: qRT-PCR Fgf21 mRNA level in steatosis-induced Huh-7 cells
Method: as §1, §2, §3, §4, §5, §6, §7, §8

CCC(=O)N1CCN(C(=O)/C=C/C=C/c2ccc(OC)cc2)CC1 [R-18, (2E,4E)-5-(4-methoxyphenyl)-1-(4-propionylpiperazine-1-yl)penta-2,4-dien-1-one]
Ck2α mRNA level (FIG. 19) (Ck2α mRNA): greatly reduced
Sirt1 mRNA level (FIG. 16) (Sirt1 mRNA): greatly increased

CCOC(=O)N1CCN(C(=O)/C=C/C=C/c2ccc(OC)cc2)CC1 [R-23, Ethyl 4-((2E,4E)-5-(4-methoxyphenyl)penta-2,4-dienoyl)piperazine-1-carboxylate]
Sirt1 mRNA level (FIG. 16) (Sirt1 mRNA): greatly increased

CCOC(=O)N1CCN(C(=O)/C=C/C=C/c2ccc(SC)cc2)CC1 [R-24, Ethyl 4-((2E,4E)-5-(4-(methylthio)phenyl)penta-2,4-dienoyl)piperazine-1-carboxylate]
Ck2α mRNA level (FIG. 19) (Ck2α mRNA): greatly reduced

O=C(/C=C/C=C/c1ccc2c(c1)OCO2)N1CCCCC1 [piperine, Piperine]
Pparα mRNA level (FIG. 10) (Pparα mRNA): no effect
Fgf21 mRNA level (FIG. 12) (Fgf21 mRNA): no effect
